# Values joined by “and” are separate entries in the source; they are usually repeats but may differ in a detail not shown here. Equal entries are not always repeated. “Also recorded” adds a separate entry of the source.
# Assays:
# [1] = test system: patients of the CATIE study (schizophrenia); test: CATIE trial: change in PANSS score (delta PANSS, LOCF) for subjects stratified by GARP genetic signature status; assay type: in vivo, human; details: for Delta PANSS, Mean, GARP-1 negative: GARP-1 negative subjects; for Delta PANSS, Mean, GARP-1 negative / Delta PANSS, Mean, GARP-1 positive / Delta PANSS, Mean, GARP-2 negative / Delta PANSS, Mean, GARP-3 negative / Delta PANSS, Mean, GARP-3 positive / Delta PANSS, Mean, GARP-4 negative / Delta PANSS, Mean, GARP-4 positive / Delta PANSS, Mean, GARP-2 positive: LOCF, CATIE Phases 1-2; for response in GARP-1 positive subjects, in words: compared with GARP-1 negative subjects or with other drugs; for response in GARP-1 positive subjects, in words / Delta PANSS, Mean, GARP-1 positive: GARP-1 positive subjects; for Relative efficacy (positive), GARP-1: GARP-1 positive versus negative subjects; for Relative efficacy (positive), GARP-1 / Relative efficacy (positive), GARP-2 / Relative efficacy (positive), GARP-3 / Relative efficacy (positive), GARP-4: t-test; for Delta PANSS, Mean, GARP-2 negative: GARP-2 negative subjects; for response in GARP-2 positive subjects, in words: compared with GARP-2 negative subjects or with other drugs; for Relative efficacy (positive), GARP-2: GARP-2 positive versus negative subjects; for Delta PANSS, Mean, GARP-3 negative: GARP-3 negative subjects; for Delta PANSS, Mean, GARP-3 positive / response in GARP-3 positive subjects, in words: GARP-3 positive subjects; for Relative efficacy (positive), GARP-3: GARP-3 positive versus negative subjects; for Delta PANSS, Mean, GARP-4 negative: GARP-4 negative subjects; for Delta PANSS, Mean, GARP-4 positive: GARP-4 positive subjects; for Relative efficacy (positive), GARP-4: GARP-4 positive versus negative subjects; for response in GARP-2 positive subjects, in words / Delta PANSS, Mean, GARP-2 positive: GARP-2 positive subjects; for response in GARP-3 positive subjects, in words: compared with GARP-3 negative subjects or with other drugs
# Experimental: The CATIE study, a large federally funded clinical trial designed to assess the efficacy of antipsychotics in a real world setting, is a valuable resource for determining the role of genes in baseline psychopathology and drug response (Lieberman et al., 2005; Stroup et al., 2003). […] Additionally, whole genome SNP genotyping was performed for roughly half of the trial participants (Sullivan et al., 2008).
# Genotype and phenotype data for the CATIE trial were recently made available to qualified researchers through the NIMH Center for Collaborative Genetic Studies on Mental Disorders. The sample consisted of a total of 738 patients. Further details on the patient population are described in the study by Sullivan and coworkers (Sullivan et al., 2008). The CATIE SNP genotype data evaluated included a total of 492,900 SNPs located throughout the genome.
# The design of the CATIE study has been described in detail by others (Lieberman et al., 2005; Stroup et al., 2003). […] Subjects that failed Phase 1 treatment with the typical antipsychotic perphenazine were treated differently than those subjects that failed phase I treatment with an atypical antipsychotic. Instead of entering into Phase II of the trial, subjects who switched from perphenazine entered Phase IB. […] Subjects who failed Phase IB then entered Phase II.
# A total of 738 subjects consented to provide DNA for genetic study. […] Only retrospective genetic analyses, judged to be exempt from human studies requirements by an IRB, were conducted in the current study. For the genetic analyses presented herein, the inventors combined and evaluated drug response data for Phase IA, Phase IB, and Phase II of the CATIE study. All tested patients were studied using well established clinical endpoints comparing baseline, intermediate, and last observation carried forward (LOCF) for the PANSS scores using CATIE data. LOCF analysis is a commonly used clinical endpoint for clinical trials for neuropsychiatric drugs, with particular changes in PANSS scores being used to indicate clinically significant response (Leucht et al., 2009).
# Using the clinical data from the CATIE trial, the inventors derived several different metrics used for quantifying response in clinical trials of antipsychotic medications. The most commonly used psychometric instrument is the Positive and Negative Syndrome Scale (PANSS), a 30-item semi-quantitative instrument scored by clinical professionals (Kay et al., 1987). The greater the decrease in PANSS score, the better the clinical response. The most direct measure of clinical response is absolute change in PANSS score (delta PANSS). In addition to absolute change, the improvement is often reported as a percentage change from baseline PANSS score.
# As mentioned previously, the mean change in PANSS at LOCF provides an important measure of efficacy in patients undergoing antipsychotic treatments. Indeed, many pivotal trials in the psychosis field used absolute and/or percentage change in PANSS Score as the primary endpoint (Leucht et al., 2009). […] Therefore, the inventors determined the impact of segmentation by GARP genetic signature status on the quantitative measure of clinical improvement—delta PANSS (for LOCF).
# Each table lists the six drugs used during the first two phases of the CATIE trial.
# [2] = test system: psychotic symptoms (PANSS); details: difference in mean response drug minus placebo arm, divided by standard deviation; negative = greater reduction in PANSS; cited from earlier work
# [3] = hierarchy high / medium / low risk; cited from earlier work
# [4] = test system: psychotic symptoms (PANSS); details: versus first generation antipsychotics; cited from earlier work
Structure (SMILES),"Delta PANSS, Mean, GARP-1 negative [1]","response in GARP-1 positive subjects, in words [1]","Delta PANSS, Mean, GARP-1 positive [1]","Relative efficacy (positive), GARP-1 [1]","Delta PANSS, Mean, GARP-2 negative [1]","response in GARP-2 positive subjects, in words [1]","Relative efficacy (positive), GARP-2 [1]","Delta PANSS, Mean, GARP-3 negative [1]","Delta PANSS, Mean, GARP-3 positive [1]","Relative efficacy (positive), GARP-3 [1]","Delta PANSS, Mean, GARP-4 negative [1]","Delta PANSS, Mean, GARP-4 positive [1]","Relative efficacy (positive), GARP-4 [1]","worse response of GARP-2 positive than GARP-2 negative patients ([1]; difference in delta PANSS, GARP-2 positive vs negative) [points]","response in GARP-1 positive subjects, in words ([1]; listed as ziprasidone)","Delta PANSS, Mean, GARP-2 positive [1]",Effect Size vs. Placebo [2],"risk for weight gain, classification [3]",Effect Size vs. FGA [4],"response in GARP-3 positive subjects, in words [1]"
"OCCN1CCN(CCCN2c3ccccc3Sc3ccc(Cl)cc32)CC1 [Perphenazine, perphenazine]",−6.40,decreased response; also recorded: Neither quetiapine nor perphenazine demonstrated efficacy,2.84 and 2.8,Decreased,0.52,enhanced response; also recorded: responded better; also recorded: superior efficacy,Enhanced,−5.5,0.7,Neutral,−4.7,−3.0,Neutral,,,,,,,
"CN1CCN(C2=Nc3cc(Cl)ccc3Nc3ccccc32)CC1 [Clozapine, clozapine]",−15.32,,−14.0,,−24.33,,,−13.6,−31,,−13.4,−26.3,,~20,,,,,,
"O=C1Cc2cc(CCN3CCN(c4nsc5ccccc45)CC3)c(Cl)cc2N1 [Ziprasidone, ziprasidone]",−2.94,worsening of symptoms,12.72 and 12.7,Decreased,3.51,enhanced response,Enhanced,−0.1,−4.5,Neutral,0.4,−4.3,Neutral,,decreased response; also recorded: responded particularly poorly; also recorded: NON-response,−2.8,−0.48,low risk,−0.04,
"OCCOCCN1CCN(C2=Nc3ccccc3Sc3ccccc32)CC1 [Quetiapine, quetiapine]",−0.53,Neither quetiapine nor perphenazine demonstrated efficacy,,Neutral,−2.86,decreased response; also recorded: responded worse; also recorded: lack of efficacy,Decreased,−0.1,−4.3,Neutral,−0.7,−1.6,Neutral,,,1.51 and 1.5,−0.42,medium risk,0.01,enhanced response; also recorded: responded significantly better
"Cc1cc2c(s1)Nc1ccccc1N=C2N1CCN(C)CC1 [Olanzapine, olanzapine]",−7.48,,,Enhanced,−10.73,,Neutral,−9.5,−6.3,Neutral,−9.0,−9.3,Neutral,,,,,high risk,,
"Cc1nc2n(c(=O)c1CCN1CCC(c3noc4cc(F)ccc34)CC1)CCCC2 [Risperidone, risperidone]",−4.55,enhanced response; also recorded: significant efficacy,,Enhanced,−4.65,superior efficacy,Neutral,−6.9,2.1,Decreased,−5.4,−6.7,Neutral,,,,−0.59,medium risk,−0.25,decreased response; also recorded: responded poorly
O=C1CCc2ccc(OCCCCN3CCN(c4cccc(Cl)c4Cl)CC3)cc2N1 [aripiprazole],,NON-response,,,,,,,,,,,,,,,,low risk,,

# From US20160273042A1, “GENETIC MARKERS OF ANTIPSYCHOTIC RESPONSE” (SUREGENE, LLC, priority 2013, published 2016)
